Test results: patent US7968537B2, “Pyrimidine compound and pests controlling composition containing the same” (Sumitomo Chemical Company, Limited, priority 2003, dated 2011)

Each compound was assayed on cotton aphids (Aphis gossypii) (assay: Test Example 1: spray test on cotton aphids on cucumber plants). Conditions: 500 ppm active ingredient, sprayed 20 ml/cup on cucumber with about 20 cotton aphids; 6th day after the application.
Assay type: in vivo
Procedure: A formulation of a test compound obtained in Formulation Example 5 was diluted with water so that the active ingredient concentration came to 500 ppm to prepare a test spray liquid. The seeds of cucumber were planted in polyethylene cups and grown until their first foliage leaves developed, on which about 20 cotton aphids (Aphis gossypii) were made parasitic. After one day, the test spray liquid was sprayed at the rate of 20 ml/cup onto the cucumber plants. On the 6th day after the application, the number of cotton aphids was examined and the control value was determined by the following formula: Control value (%)={1−(Cb×Tai)/(Cai×Tb)}×100 wherein the variables in the formula have the following meanings: Cb: the number of insects before the treatment in the non-treated area; Cai: the number of insects at the time of observation in the non-treated area; Tb: the number of insects before the treatment in the treated area; and Tai: the number of insects at the time of observation in the treated area.

Row | SMILES | control value [%]
1 | COc1cc(N2CCCCC2)ncn1 [compound of the formula (A)] | ≤ 29

These compounds were tested on Western flower thrips (Frankliniella occidentalis) (assay: Test Example 2: Western flower thrips larvae on treated cucumber leaf). Conditions: 500 ppm, 20 ml/cup on cucumber; thirty larvae set free on cut first true leaf; after seven days.
Assay type: in vivo
Procedure: A formulation of each test compound obtained according to Formulation Example 5 was diluted with water so that the active ingredient concentration came to 500 ppm to prepare a test spray liquid. The seeds of cucumber were planted in a polyethylene cup, and grown until their first foliage leaves developed, and then a test spray liquid was applied at a ratio of 20 ml/cup to the plant. After the liquid sprayed to the cucumber were dried, the first true leaf was cut off and placed on a filter paper (70 mm in diameter) impregnated with water in a polyethylene cup (110 mm in diameter). Thirty larvae of Western flower thrips (Frankliniella occidentalis) were set free on the first true leaf, which was covered with a polyethylene cup. After seven days, the number of surviving pests was examined.

Row | SMILES | number of surviving pests
2 | CC#CCOc1ncnc(N2CC=CCC2)c1F [Compound (53), 1-(6-(2-butynyloxy)-5-fluoropyrimidin-4-yl)-1,2,3,6-tetrahydropyridine] | 0
3 | CC#CCOc1ncnc(N2CCCC(C)(C)C2)c1F [Compound (32), 4-(2-butynyloxy)-6-(3,3-dimethylpiperidino)-5-fluoropyrimidine] | 0
4 | CC#CCOc1cc(N2C[C@H](C)C[C@H](C)C2)ncn1 [Compound (23), 4-(2-butynyloxy)-6-(cis-3,5-dimethylpiperidino)pyrimidine] | 0
5 | CC#CCOc1nc(F)nc(N2CC(C)CC(C)C2)c1Cl (stereo not shown) [Compound (52), 5-chloro-4-(2-butynyloxy)-2-fluoro-6-(3,5-dimethylpiperidino)pyrimidine] | 0
6 | CC#CCOc1ncnc(N2CC(C)CC(C)C2)c1F (stereo not shown) [(51), 4-(2-butynyloxy)-5-fluoro-6-(3,5-dimethylpiperidino)pyrimidine] | 0
7 | CC#CCOc1ncnc(N2CCCC(C)C2)c1F (stereo not shown) [Compound (26), 4-(2-butynyloxy)-5-fluoro-6-(3-methylpiperidino)pyrimidine] | 0
8 | CC#CCOc1ncnc(N2CC(C)CC(C)C2)c1F (stereo not shown) [Compound (4), 4-(2-butynyloxy)-5-fluoro-6-(3,5-dimethylpiperidino)pyrimidine] | 0
9 | CC#CCOc1ncnc(N2C[C@H](C)C[C@H](C)C2)c1F [Compound (29), 4-(2-butynyloxy)-5-fluoro-6-(cis-3,5-dimethylpiperidino)pyrimidine] | 0
10 | CC#CCOc1cc(N2CCCC(C(F)(F)F)C2)ncn1 (stereo not shown) [Compound (24), 4-(2-butynyloxy)-6-(3-trifluoromethylpiperidino)pyrimidine] | 0
11 | CC#CCOc1cc(N2C[C@@H](C)C[C@H](C)C2)ncn1 (relative stereo) [Compound (44), 4-(2-butynyloxy)-6-(trans-3,5-dimethylpiperidino)pyrimidine] | 0
12 | CC#CCOc1ncnc(N2CCCCCCC2)c1F [Compound (46), 1-(6-(2-butynyloxy)-5-fluoropyrimidin-4-yl)octahydro-1H-azocine] | 0
13 | CC#CCOc1ncnc(N2CCCCC2CC)c1F (stereo not shown) [Compound (33), 4-(2-butynyloxy)-6-(2-ethylpiperidino)-5-fluoropyrimidine] | 0
